According to ChEMBL document CHEMBL1126058, “Development of potent and selective CCK-A receptor agonists from Boc-CCK-4: tetrapeptides containing Lys(N epsilon)-amide residues” (J Med Chem, 1992):
Where a SMILES comes first, the peptide text is derived from it. [ ]: non-standard residue; d: D form. The star is where a group is joined. Hydrocinnamoyl(4-OSO3H) = O=C(CCc1ccc(OS(=O)(=O)O)cc1)*; Propanoyl(3-(4-F-phenyl)) = O=C(CCc1ccc(F)cc1)*; Propanoyl(3-(4-MeO-Ph)) = COc1ccc(CCC(=O)*)cc1; Propanoyl(3-(4-Cl-Ph)) = O=C(CCc1ccc(Cl)cc1)*; Hydrocinnamoyl(4-Me) = Cc1ccc(CCC(=O)*)cc1; Quinoline3carbonyl = O=C(c1cnc2ccccc2c1)*; X13 = O=C(c1ccc2cc(OS(=O)(=O)O)ccc2c1)*; X6 = O=C(/C=C\c1ccc([N+](=O)[O-])cc1)*; Propanoyl(3-cHex) = O=C(CCC1CCCCC1)*; X15 = O=C(/C=C\c1ccc(C(F)(F)F)cc1)*; X20 = CC(=O)Oc1ccc2cc(C(=O)*)ccc2c1; Hydrocinnamoyl = O=C(CCc1ccccc1)*; X17 = COc1ccc(/C=C\C(=O)*)c(OC)c1; NMeF = CN[C@@H](Cc1ccccc1)C(=O)O; X10 = O=C(/C=C\c1ccc(Cl)cc1Cl)*; X14 = O=C(c1cc2cc(O)ccc2[nH]1)*; X2 = O=C(c1cc2cc(Cl)ccc2[nH]1)*; X7 = CN(C)c1ccc(/C=C\C(=O)*)cc1; X8 = COc1ccc2[nH]c(C(=O)*)cc2c1; X1 = O=C(/C=C\c1ccc(O)c(O)c1)*; X12 = O=C(c1cnc2cccc(O)c2c1)*; X21 = O=C(/C=C\c1ccc(Br)cc1)*; X11 = O=C(/C=C\c1ccc(O)cc1)*; X18 = O=C(c1cc2ccccc2[nH]1)*; X3 = O=C(/C=C/c1ccc(O)cc1)*; X4 = O=C(/C=C\c1ccc(F)cc1)*; X16 = O=C(/C=C\c1ccccc1O)*; X19 = O=C(/C=C\c1ccccc1)*; X5 = O=C(CCc1cccc(O)c1)*; X9 = O=C(/C=C/c1cccs1)*; Boc = CC(C)(C)OC(=O)*

What was measured:
[1] = biological target: T1, Cholecystokinin receptor type A (Cavia porcellus, UniProt Q63931); test: Inhibition of specific binding of [125I]BH-CCK-8 in guinea pig pancreas.
T1 sequence (Q63931 whole entry): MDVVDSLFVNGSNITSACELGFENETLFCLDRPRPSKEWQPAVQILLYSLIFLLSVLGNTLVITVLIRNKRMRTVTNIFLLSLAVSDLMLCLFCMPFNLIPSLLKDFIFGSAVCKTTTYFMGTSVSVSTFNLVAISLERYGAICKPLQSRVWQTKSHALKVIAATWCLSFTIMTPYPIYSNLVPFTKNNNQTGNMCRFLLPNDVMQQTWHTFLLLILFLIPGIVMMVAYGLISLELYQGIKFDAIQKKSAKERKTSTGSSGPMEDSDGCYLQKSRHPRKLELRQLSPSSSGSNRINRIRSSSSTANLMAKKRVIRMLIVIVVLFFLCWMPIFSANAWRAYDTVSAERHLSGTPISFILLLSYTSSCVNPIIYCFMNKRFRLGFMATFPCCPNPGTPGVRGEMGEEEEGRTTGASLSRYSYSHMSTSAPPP

Cavia porcellus [2] = species on record: Cavia porcellus; test: Hydrolysis of phosphoinositide (PI) relative to maximal response elicited by CCK-8 in guinea pig pancreas.; type: functional
Cavia porcellus [3] = species on record: Cavia porcellus; test: Stimulation of amylase release in guinea pig pancreas; type: functional

Row | IC50 [1] [nM] | EC50 (Cavia porcellus [3]) [nM] | SMILES | Max (Cavia porcellus [2]) [%]
1 | 410 | 170 | CC(C)(C)OC(=O)N[C@@H](Cc1c[nH]c2ccccc12)C(=O)N[C@@H](CCCCNC(=O)CCc1ccc(Cl)cc1)C(=O)N[C@@H](CC(=O)O)C(=O)N[C@@H](Cc1ccccc1)C(N)=O (Boc-WK(Propanoyl(3-(4-Cl-Ph)))DF-NH2) | 51
2 | 250 | 450 | CC(C)(C)OC(=O)N[C@@H](Cc1c[nH]c2ccccc12)C(=O)N[C@@H](CCCCNC(=O)CCc1ccc(F)cc1)C(=O)N[C@@H](CC(=O)O)C(=O)N[C@@H](Cc1ccccc1)C(N)=O (Boc-WK(Propanoyl(3-(4-F-phenyl)))DF-NH2) | 68
3 | 310 | 30000 | CC(C)(C)OC(=O)N[C@@H](Cc1c[nH]c2ccccc12)C(=O)N[C@@H](CCCCNC(=O)CCC1CCCCC1)C(=O)N[C@@H](CC(=O)O)C(=O)N[C@@H](Cc1ccccc1)C(N)=O (Boc-WK(Propanoyl(3-cHex))DF-NH2) | 40
4 | 33 | 39 | CC(C)(C)OC(=O)N[C@@H](Cc1c[nH]c2ccccc12)C(=O)N[C@@H](CCCCNC(=O)c1cnc2ccccc2c1)C(=O)N[C@@H](CC(=O)O)C(=O)N[C@@H](Cc1ccccc1)C(N)=O (Boc-WK(Quinoline3carbonyl)DF-NH2) | 46
5 | 110 | 62 | CC(C)(C)OC(=O)N[C@@H](Cc1c[nH]c2ccccc12)C(=O)N[C@@H](CCCCNC(=O)c1cc2cc(Cl)ccc2[nH]1)C(=O)N[C@@H](CC(=O)O)C(=O)N[C@@H](Cc1ccccc1)C(N)=O (Boc-WK(X2)DF-NH2) | 27
6 | 65 | 16 | CC(C)(C)OC(=O)N[C@@H](Cc1c[nH]c2ccccc12)C(=O)N[C@@H](CCCCNC(=O)/C=C\c1ccc(F)cc1)C(=O)N[C@@H](CC(=O)O)C(=O)N[C@@H](Cc1ccccc1)C(N)=O (Boc-WK(X4)DF-NH2) | 74
7 | 16 | 3.9 | CC(C)(C)OC(=O)N[C@@H](Cc1c[nH]c2ccccc12)C(=O)N[C@@H](CCCCNC(=O)/C=C\c1ccc(O)cc1)C(=O)N[C@@H](CC(=O)O)C(=O)N[C@@H](Cc1ccccc1)C(N)=O (Boc-WK(X11)DF-NH2) | 76
8 | 14 | 68 | CC(C)(C)OC(=O)N[C@@H](Cc1c[nH]c2ccccc12)C(=O)N[C@@H](CCCCNC(=O)c1cc2cc(O)ccc2[nH]1)C(=O)N[C@@H](CC(=O)O)C(=O)N[C@@H](Cc1ccccc1)C(N)=O (Boc-WK(X14)DF-NH2) | 23
9 | 110 | 210 | CC(C)(C)OC(=O)N[C@@H](Cc1c[nH]c2ccccc12)C(=O)N[C@@H](CCCCNC(=O)/C=C\c1ccccc1O)C(=O)N[C@@H](CC(=O)O)C(=O)N[C@@H](Cc1ccccc1)C(N)=O (Boc-WK(X16)DF-NH2) | 54
10 | 55 | 30 | CC(C)(C)OC(=O)N[C@@H](Cc1c[nH]c2ccccc12)C(=O)N[C@@H](CCCCNC(=O)/C=C\c1ccccc1)C(=O)N[C@@H](CC(=O)O)C(=O)N[C@@H](Cc1ccccc1)C(N)=O (Boc-WK(X19)DF-NH2) | 52
11 | 3.4 | 29 | CC(=O)Oc1ccc2cc(C(=O)NCCCC[C@H](NC(=O)[C@H](Cc3c[nH]c4ccccc34)NC(=O)OC(C)(C)C)C(=O)N[C@@H](CC(=O)O)C(=O)N(C)[C@@H](Cc3ccccc3)C(N)=O)ccc2c1 (Boc-WK(X20)D[NMeF]-NH2) | 58

The next lines start with the compound.

Row | SMILES | IC50 [1] [nM] | EC50 (Cavia porcellus [3]) [nM] | Max (Cavia porcellus [2]) [%]
12 | Cc1ccc(CCC(=O)NCCCC[C@H](NC(=O)[C@H](Cc2c[nH]c3ccccc23)NC(=O)OC(C)(C)C)C(=O)N[C@@H](CC(=O)O)C(=O)N[C@@H](Cc2ccccc2)C(N)=O)cc1 (Boc-WK(Hydrocinnamoyl(4-Me))DF-NH2) | 290 | 240 | 62
13 | CC(C)(C)OC(=O)N[C@@H](Cc1c[nH]c2ccccc12)C(=O)N[C@@H](CCCCNC(=O)CCc1ccc(OS(=O)(=O)O)cc1)C(=O)N[C@@H](CC(=O)O)C(=O)N[C@@H](Cc1ccccc1)C(N)=O (Boc-WK(Hydrocinnamoyl(4-OSO3H))DF-NH2) | 76 | 98 | 68
14 | CC(C)(C)OC(=O)N[C@@H](Cc1c[nH]c2ccccc12)C(=O)N[C@@H](CCCCNC(=O)CCc1ccccc1)C(=O)N[C@@H](CC(=O)O)C(=O)N[C@@H](Cc1ccccc1)C(N)=O (Boc-WK(Hydrocinnamoyl)DF-NH2) | 310 | 850 | 49
15 | COc1ccc(CCC(=O)NCCCC[C@H](NC(=O)[C@H](Cc2c[nH]c3ccccc23)NC(=O)OC(C)(C)C)C(=O)N[C@@H](CC(=O)O)C(=O)N[C@@H](Cc2ccccc2)C(N)=O)cc1 (Boc-WK(Propanoyl(3-(4-MeO-Ph)))DF-NH2) | 140 | 74 | 70
16 | CC(C)(C)OC(=O)N[C@@H](Cc1c[nH]c2ccccc12)C(=O)N[C@@H](CCCCNC(=O)/C=C\c1ccc(O)c(O)c1)C(=O)N[C@@H](CC(=O)O)C(=O)N[C@@H](Cc1ccccc1)C(N)=O (Boc-WK(X1)DF-NH2) | 33 | 45 | 66
17 | CN(C(=O)[C@H](CC(=O)O)NC(=O)[C@H](CCCCNC(=O)/C=C/c1ccc(O)cc1)NC(=O)[C@H](Cc1c[nH]c2ccccc12)NC(=O)OC(C)(C)C)[C@@H](Cc1ccccc1)C(N)=O (Boc-WK(X3)D[NMeF]-NH2) | […] | 3 | 76
18 | CC(C)(C)OC(=O)N[C@@H](Cc1c[nH]c2ccccc12)C(=O)N[C@@H](CCCCNC(=O)CCc1cccc(O)c1)C(=O)N[C@@H](CC(=O)O)C(=O)N[C@@H](Cc1ccccc1)C(N)=O (Boc-WK(X5)DF-NH2) | 400 | 160 | 46
19 | CC(C)(C)OC(=O)N[C@@H](Cc1c[nH]c2ccccc12)C(=O)N[C@@H](CCCCNC(=O)/C=C\c1ccc([N+](=O)[O-])cc1)C(=O)N[C@@H](CC(=O)O)C(=O)N[C@@H](Cc1ccccc1)C(N)=O (Boc-WK(X6)DF-NH2) | 57 | 27 | 64
20 | CN(C)c1ccc(/C=C\C(=O)NCCCC[C@H](NC(=O)[C@H](Cc2c[nH]c3ccccc23)NC(=O)OC(C)(C)C)C(=O)N[C@@H](CC(=O)O)C(=O)N[C@@H](Cc2ccccc2)C(N)=O)cc1 (Boc-WK(X7)DF-NH2) | 120 | 17 | 49
21 | COc1ccc2[nH]c(C(=O)NCCCC[C@H](NC(=O)[C@H](Cc3c[nH]c4ccccc34)NC(=O)OC(C)(C)C)C(=O)N[C@@H](CC(=O)O)C(=O)N[C@@H](Cc3ccccc3)C(N)=O)cc2c1 (Boc-WK(X8)DF-NH2) | 52 | 16 | 21
22 | CC(C)(C)OC(=O)N[C@@H](Cc1c[nH]c2ccccc12)C(=O)N[C@@H](CCCCNC(=O)/C=C/c1cccs1)C(=O)N[C@@H](CC(=O)O)C(=O)N[C@@H](Cc1ccccc1)C(N)=O (Boc-WK(X9)DF-NH2) | 50 | 20 | 66
23 | CC(C)(C)OC(=O)N[C@@H](Cc1c[nH]c2ccccc12)C(=O)N[C@@H](CCCCNC(=O)/C=C\c1ccc(Cl)cc1Cl)C(=O)N[C@@H](CC(=O)O)C(=O)N[C@@H](Cc1ccccc1)C(N)=O (Boc-WK(X10)DF-NH2) | 130 | 90 | 86
24 | CC(C)(C)OC(=O)N[C@@H](Cc1c[nH]c2ccccc12)C(=O)N[C@@H](CCCCNC(=O)c1cnc2cccc(O)c2c1)C(=O)N[C@@H](CC(=O)O)C(=O)N[C@@H](Cc1ccccc1)C(N)=O (Boc-WK(X12)DF-NH2) | 7.7 | 2.3 | 45
25 | CC(C)(C)OC(=O)N[C@@H](Cc1c[nH]c2ccccc12)C(=O)N[C@@H](CCCCNC(=O)c1ccc2cc(OS(=O)(=O)O)ccc2c1)C(=O)N[C@@H](CC(=O)O)C(=O)N[C@@H](Cc1ccccc1)C(N)=O (Boc-WK(X13)DF-NH2) | 2.9 | 3.5 | 49
26 | CC(C)(C)OC(=O)N[C@@H](Cc1c[nH]c2ccccc12)C(=O)N[C@@H](CCCCNC(=O)/C=C\c1ccc(C(F)(F)F)cc1)C(=O)N[C@@H](CC(=O)O)C(=O)N[C@@H](Cc1ccccc1)C(N)=O (Boc-WK(X15)DF-NH2) | 220 | 55 | 60
27 | COc1ccc(/C=C\C(=O)NCCCC[C@H](NC(=O)[C@H](Cc2c[nH]c3ccccc23)NC(=O)OC(C)(C)C)C(=O)N[C@@H](CC(=O)O)C(=O)N[C@@H](Cc2ccccc2)C(N)=O)c(OC)c1 (Boc-WK(X17)DF-NH2) | 38 | 14 | 82
28 | CC(C)(C)OC(=O)N[C@@H](Cc1c[nH]c2ccccc12)C(=O)N[C@@H](CCCCNC(=O)c1cc2ccccc2[nH]1)C(=O)N[C@@H](CC(=O)O)C(=O)N[C@@H](Cc1ccccc1)C(N)=O (Boc-WK(X18)DF-NH2) | 39 | 20 | 18
29 | CC(=O)Oc1ccc2cc(C(=O)NCCCC[C@H](NC(=O)[C@H](Cc3c[nH]c4ccccc34)NC(=O)OC(C)(C)C)C(=O)N[C@@H](CC(=O)O)C(=O)N[C@@H](Cc3ccccc3)C(N)=O)ccc2c1 (Boc-WK(X20)DF-NH2) | 8 | 11 | 49
30 | CC(C)(C)OC(=O)N[C@@H](Cc1c[nH]c2ccccc12)C(=O)N[C@@H](CCCCNC(=O)/C=C\c1ccc(Br)cc1)C(=O)N[C@@H](CC(=O)O)C(=O)N[C@@H](Cc1ccccc1)C(N)=O (Boc-WK(X21)DF-NH2) | 140 | 38 | 72
